The ED50 is the dose that gives a 50% effect, or the effect in half of the subjects.

Structures can show the parent of a compound that is named as a salt. Where two headings read alike, the source gives them in different places.

Holding throughout (type): in vivo
Assay [1] deals with spontaneously hypertensive rats. As to the kind of experiment: Antihypertensive effects in spontaneously hypertensive rats, oral administration. To be noted: at 10 mg/Kg p.o.; mean ± S.E. of 5 to 10 animals; measured indirectly from the tail. As for the experimental part:
B. Antihypertensive effects in spontaneously hypertensive rats: Oral administration: The systolic blood pressure was measured indirectly from the tail using a programmed electro-sphygmanometer (Nacro Bio-Systems Inc., PE-300) on spontaneously hypertensive rats having a systolic blood pressure of higher than 150 mmHg, the result being shown in Table II.

In the next assay the test system is α-Adrenergic. As to the kind of experiment: α-Adrenergic blocking action: antagonism of hypertensive response to phenylephrine in anesthetized rats. To be noted: Rattus norvegicus, iv, read-out: α-blocking (Rat) ED50. As to the method: A. α-Adrenergic blocking action: (a) The blood pressure was measured in rats anesthetized with urethane and treated with pentolinium.

The subject of another assay is β-Adrenergic. The assay is described as follows: β-Adrenergic blocking action: antagonism of isoproterenol induced tachycardia in rats. The conditions noted are these: Rattus norvegicus, iv; reserpine pretreated, pentobarbital anesthetized rats; isoproterenol 0.1 μg/Kg iv. As for the experimental part:
Bilateral vagotomy was performed at the neck. The effects of the test samples to antagonize the isoproterenol (0.1 μg/Kg iv.) induced tachycardia were measured and the results were shown in Table I.

Setting [2] is: urethane anesthetized, pentolinium treated rats, phenylephrine 10 μg/Kg i.v.

As to `CCOc1ccccc1OCCNCC(O)c1ccc(C)c(S(N)(=O)=O)c1.Cl` (stereo not drawn) [Example 60, 5-{1-Hydroxy-2-[2-(2-ethoxyphenoxy)ethylamino]ethyl}-2-methylbenzenesulfonamide hydrochloride], in assay [1], the “antihypertensive effect: change in systolic blood pressure” value (shortened to “antihypertensive effect: change”) is reported as -31 ± 2.8 mmHg. For the molecule `COc1ccc(C(O)CNC(C)C2COc3ccccc3O2)cc1S(N)(=O)=O` (stereo not drawn) [72(i1'), 5-{1-hydroxy-2-[1-(1,4-benzodioxan-2-yl)ethylamino]ethyl}-2-methoxybenzenesulfonamide hydrochloride (i1 ')], the “antihypertensive effect: change” value in assay [1] is -30 ± 4.3 mmHg. As for `Cc1ccc(C(O)CNC(C)C2COc3ccccc3O2)cc1S(N)(=O)=O` (stereo not drawn) [Example 28], the ED50 in the assay on α-Adrenergic (setting [2]) is 1.1 mg/kg; in the assay on β-Adrenergic, 0.42 mg/kg. The “antihypertensive effect: change” value in assay [1] is reported as -23 ± 4.3 mmHg. On to `COc1ccccc1OCC(C)(C)NCC(O)c1ccc(C)c(S(N)(=O)=O)c1` (stereo not drawn) [Example 9], for which the ED50 in the assay with α-Adrenergic (setting [2]) was found to be 0.89 mg/kg; in the assay on β-Adrenergic it was 0.26 mg/kg. Besides, the “antihypertensive effect: change” value in assay [1] is -25 ± 4.2 mmHg. Taken in the same sequence, the figures for `Cc1ccc(C(O)CNC(C)COc2ccccc2O)cc1S(N)(=O)=O.Cl` (stereo not drawn) [Example 41, 5-{1-Hydroxy-2-[2-(2-hydroxyphenoxy)-1-methylethylamino]-ethyl}-2-methylbenzenesulfonamide hydrochloride] were 0.66 mg/kg, 0.044 mg/kg and -30 ± 4.9 mmHg. Regarding `CCOc1ccccc1OCC(C)NCC(O)c1ccc(C)c(S(N)(=O)=O)c1.Cl` (stereo not drawn) [Example 39, 5-{1-Hydroxy-2-[2-(2-ethoxyphenoxy)-1-methylethylamino]-ethyl}-2-methylbenzenesulfonamide hydrochloride], the 50% effective dose (ED50) in the assay with α-Adrenergic (setting [2]) is 0.066 mg/kg; in the assay with β-Adrenergic, 0.27 mg/kg. In assay [1], the “antihypertensive effect: change” value is listed as -11 ± 5.5 mmHg. On to `COc1ccccc1OCC(C)NCC(O)c1ccc(OC)c(S(N)(=O)=O)c1.Cl` (stereo not drawn) [Example 34, 5-{1-Hydroxy-2-[2-(2-methoxyphenoxy)-1-methylethylamino]-ethyl}-2-methoxybenzenesulfonamide hydrochloride], for which the figures for the median effective dose (ED50) with α-Adrenergic (setting [2]) and in the assay with β-Adrenergic were 0.068 mg/kg and 0.28 mg/kg, respectively. Moreover, in assay [1], the “antihypertensive effect: change” value is listed as -20 ± 4.3 mmHg. Turning to `Cc1ccc(C(O)CNC(C)CCc2ccccc2)cc1S(N)(=O)=O.Cl` (stereo not drawn) [Example 24, 5-[1-hydroxy-2-(1-methyl-3-phenylpropylamino)ethyl]-2-methylbenzenesulfonamide hydrochloride], the “antihypertensive effect: change” value in assay [1] is recorded as -27 ± 6.1 mmHg.

With `COc1cc(CO)ccc1OCCNCC(O)c1ccc(C)c(S(N)(=O)=O)c1` (stereo not drawn) [Example 50], the values for the ED50 in the assay with α-Adrenergic (setting [2]) and in the assay with β-Adrenergic were 0.3 mg/kg and 0.049 mg/kg, respectively. In the case of `C=CCOc1ccccc1OCCNCC(O)c1ccc(C)c(S(N)(=O)=O)c1.Cl` (stereo not drawn) [Example 18, 5-{2-[2-(2-Allyloxyphenoxy)ethylamino]-1-hydroxyethyl}-2-methylbenzenesulfonamide hydrochloride], the “antihypertensive effect: change” value in assay [1] is recorded as -34 ± 5.2 mmHg. Take `Cc1ccc(C(O)CNCCOc2ccccc2O)cc1S(N)(=O)=O` (stereo not drawn) [Example 63, 5-{1-Hydroxy-2-[2-(2-hydroxyphenoxy)ethylamino]ethyl}-2-methylbenzenesulfonamide]: the median effective dose (ED50) with α-Adrenergic (setting [2]) was 0.27 mg/kg; in the assay with β-Adrenergic, 0.08 mg/kg.

For the molecule `CC(NCC(O)c1ccc(O)c(S(N)(=O)=O)c1)C1COc2ccccc2O1` (stereo not drawn) [70(i1'), 2-hydroxy-5-{1-hydroxy-2-[1-(1,4-benzodioxan-2-yl)ethylamino]ethyl}benzenesulfonamide], in assay [1], the “antihypertensive effect: change” value is -27 ± 6.1 mmHg. Regarding `COc1ccccc1OCCNCC(O)c1ccc(OC)c(S(N)(=O)=O)c1.Cl` (stereo not drawn) [Example 48, 5-{1-Hydroxy-2-[2-(2-methoxyphenoxy)ethylamino]ethyl}-2-methoxybenzenesulfonamide hydrochloride], the “antihypertensive effect: change” value in assay [1] is reported as -49 ± 4.9 mmHg. On to `CC(CCc1ccccc1)NCC(O)c1ccc(N)c(S(N)(=O)=O)c1` (stereo not drawn) [Example 64, 2-Amino-5-[1-hydroxy-2-(1-methyl-3-phenylpropylamino)ethyl]benzenesulfonamide], for which the ED50 turned out to be 0.2 mg/kg in the assay on α-Adrenergic (setting [2]) and 0.12 mg/kg with β-Adrenergic. `CC(CCc1ccccc1)NCC(O)c1ccc(O)c(C(N)=O)c1` (stereo not drawn) [Labetalol, 5-[1-hydroxy-2-(1-methyl-3-phenyl-propyl)aminoethyl]salicylamide, reference compound]: in the assay on α-Adrenergic, the ED50 came to 1.1 mg/kg. Further, the “antihypertensive effect: change” value in assay [1] is given as -10 ± 3.6 mmHg.

As to `Cc1ccc(C(O)CNCCOc2ccc(O)cc2)cc1S(N)(=O)=O.Cl` (stereo not drawn) [Example 45, 5-{1-Hydroxy-2-[2-(4-hydroxyphenoxy)ethylamino]ethyl}-2-methylbenzenesulfonamide hydrochloride], the figures for the ED50 with α-Adrenergic (setting [2]) and in the assay on β-Adrenergic were 0.86 mg/kg and 0.013 mg/kg, respectively. On the same counts, the results for `COc1ccc(C(O)CNC(C)CCc2ccccc2)cc1S(N)(=O)=O.Cl` (stereo not drawn) [Example 25, 5-[1-Hydroxy-2-(1-methyl-3-phenylpropylamino)ethyl]-2-methoxybenzenesulfonamide hydrochloride] are 1.3 mg/kg and 0.035 mg/kg.

As for `CCOc1ccccc1OCCNCC(O)c1ccc(O)c(S(N)(=O)=O)c1.Cl` (stereo not drawn) [Example 62, 2-Hydroxy-5-{1-hydroxy-2-[2-(2-ethoxyphenoxy)ethylamino]-ethyl}benzenesulfonamide hydrochloride], the “antihypertensive effect: change” value in assay [1] is -47 ± 6.6 mmHg. On to `CCOc1cc(CO)ccc1OCCNCC(O)c1ccc(C)c(S(N)(=O)=O)c1` (stereo not drawn) [Example 52, 5-{1-Hydroxy-2-[2-(2-ethoxy-4-hydroxymethylphenoxy)ethylamino]ethyl}-2-methylbenzenesulfonamide], for which the ED50 was 1.1 mg/kg in the assay with α-Adrenergic (setting [2]) and 0.022 mg/kg in the assay on β-Adrenergic. Regarding `COc1cc(C)ccc1OCCNCC(O)c1ccc(C)c(S(N)(=O)=O)c1.Cl` (stereo not drawn) [Example 46, 5-{1-Hydroxy-2-[2-(2-methoxy-4-methylphenoxy)ethylamino]-ethyl}-2-methylbenzenesulfonamide hydrochloride], in assay [1], the “antihypertensive effect: change” value was -20 ± 4.5 mmHg.

`COc1cc(C(O)CNC(C)CCc2ccccc2)cc(S(N)(=O)=O)c1.Cl` (stereo not drawn) [Example 30, 3-[1-Hydroxy-2-(1-methyl-3-phenylpropylamino)ethyl]-5-methoxybenzenesulfonamide hydrochloride]: the median effective dose (ED50) in the assay with α-Adrenergic (setting [2]) is 1.8 mg/kg; in the assay on β-Adrenergic it was 0.052 mg/kg. Turning to `COc1cc(O)ccc1OCCNCC(O)c1ccc(C)c(S(N)(=O)=O)c1` (stereo not drawn) [Example 13, 5-{1-Hydroxy-2-[2-(4-hydroxy-2-methoxyphenoxy)ethylamino]ethyl}-2-methylbenzenesulfonamide], the 50% effective dose (ED50) in the assay on α-Adrenergic (setting [2]) is 0.23 mg/kg; in the assay with β-Adrenergic, 0.014 mg/kg. For `CCOc1ccccc1OCCNCC(O)c1ccc(OC)c(S(N)(=O)=O)c1.Cl` (stereo not drawn) [Example 61, 5-{1-Hydroxy-2-[2-(2-ethoxyphenoxy)ethylamino]ethyl}-2-methoxybenzenesulfonamide hydrochloride], in assay [1], the “antihypertensive effect: change” value is recorded as -54 ± 5.4 mmHg.

The record behind these values is patent publication US4217305A, “Phenylethanolamine derivatives” (Yamanouchi Pharmaceutical Co., Ltd., priority 1977, dated 1980).
